In patent US20240148709A1, “METHODS OF TREATING EYE PAIN AND EYE DISORDERS” (Aisa Pharma, Inc., priority 2022, published 2024):

Test system: participants with SSc-RP
Test: Scleroderma Health Assessment Questionnaire (SHAQ), Phase 2a study Part A
Assay type: in vivo, human
Conditions: for % change in Pain (SHAQ): mITT
Description: Part A—double-blind, placebo-controlled, parallel-group, dose selection, will assess the safety and efficacy of two doses of cilnidipine (10 mg and 20 mg), alone and in combination with tadalafil. A total of 36 participants will be randomized to one of six prespecified treatment arms. Refer to FIG. 1 for treatment arms in Part A of the study. Dosing last for 12 (±2) days in which participants will self-administer daily doses of assigned treatment in the morning. Each participant will take one capsule and one tablet to blind the active therapy being received.
The standard, validated, patient reported outcome measures tool for SSc patients, the SHAQ, will be collected at the time points specified in the study schedules (FIG. 2 and FIGS. 3A and 3B) to assess the participant's quality of life. The SHAQ includes a Raynaud's VAS that will also be reported separately.
Results: Patients in the study were administered the Scleroderma Health Assessment Questionnaire (SHAQ) at the time of study entry and during clinic visits following the treatment period. The study is a two-part, parallel arm design, prospective, double-blind, randomized study conducted in Australia (Flinders Medical Center). 27 patients were randomized into the first phase of the study, following which a DSMB meeting was held, which reviewed data on the primary study endpoint and key Raynaud's secondary endpoints. Data on the SHAQ was not available for the DSMB to review. The mITT population, in which any data was available post treatment was 24 patients was the analysis population for this first part of the study. The second part (i.e., part B) of the study will randomize 36 patients in a double blind, randomized, prospective, placebo controlled, crossover study. In the first part (i.e., Part A) of the study for which data is presented, patients were randomized into 6 groups, cilnidipine at two doses (10 and 20 mg) alone and in combination with tadalafil 5 mg, tadalafil 5 mg alone, and placebo. […] The DSMB recommended that the study proceed into its double blind prospective cross overpowered second phase and compare cilnidipine 20 mg alone to placebo.

[1] = Pooled Cilnidipine 10 mg or 20 mg (N = 7)
[2] = Pooled Cilnidipine 10 mg or 20 mg (n = 6)
[3] = cilnidipine 10 mg and/or tadalafil 5 mg arms

COCCOC(=O)C1=C(C)NC(C)=C(C(=O)OC/C=C/c2ccccc2)C1c1cccc([N+](=O)[O-])c1 (stereo not drawn) [Cilnidipine, cilnidipine]
% change VAS Raynauds (Cilnidipine 20 mg (n = 3)): −49% | % change in Alternative Disability Index (Cilnidipine 20 mg (n = 3)): −42% | % change in Standard Disability Index (Cilnidipine 20 mg (n = 3)): −50% | % change overall SSc Disease Severity (Cilnidipine 20 mg (n = 3)): −63% (i.e., improvement) | % improvement in Breathing (median) (Cilnidipine 20 mg (n = 3)): 67% (median) | % improvement in VAS Digital Ulcers (Cilnidipine 20 mg (n = 3)): 35% | Alternative disability index, % improvement (Cilnidipine 20 mg (n = 3)): 42% improvement | Standard disability Index, % improvement (Cilnidipine 20 mg (n = 3)): 50% improvement | VAS - Breathing problems, % improvement (Cilnidipine 20 mg (n = 3)): 75% improvement* | VAS - Raynaud's, % improvement (Cilnidipine 20 mg (n = 3)): 55% improvement | VAS Overall Disease Severity, % improvement (Cilnidipine 20 mg (n = 3)): 63% improvement | % change in Pain (SHAQ) (Cilnidipine 20 mg (n = 3)): −53% | VAS- PAIN, % improvement (Cilnidipine 20 mg (n = 3), baseline 2.17 on a 0-10 VAS): 53% improvement* | SHAQ overall disease severity, Change from Baseline, Max [1]: 0.20 | SHAQ overall disease severity, Change from Baseline, Mean (SD) [1]: −1.214 (0.7946) | SHAQ overall disease severity, Change from Baseline, Median [1]: −1.500 | SHAQ overall disease severity, Change from Baseline, Min [1]: −1.90 | SHAQ overall disease severity, Change from Baseline, Q1 [1]: −1.800 | SHAQ overall disease severity, Change from Baseline, Q3 [1]: −0.400 | SHAQ overall disease severity, In-Clinic Visit (Day 12), Max [1]: 5.20 | SHAQ overall disease severity, In-Clinic Visit (Day 12), Mean (SD) [1]: 1.486 (1.7743) | SHAQ overall disease severity, In-Clinic Visit (Day 12), Median [1]: 1.200 | SHAQ overall disease severity, In-Clinic Visit (Day 12), Min [1]: 0.00 | SHAQ overall disease severity, In-Clinic Visit (Day 12), Q1 [1]: 0.200 | SHAQ overall disease severity, In-Clinic Visit (Day 12), Q3 [1]: 1.900 | SHAQ overall disease severity, Percent Change from Baseline, Max [2]: −26.8% | SHAQ overall disease severity, Percent Change from Baseline, Mean (SD) [2]: −59.80 (25.642) % | SHAQ overall disease severity, Percent Change from Baseline, Median [2]: −55.86% | SHAQ overall disease severity, Percent Change from Baseline, Min [2]: −100.0% | SHAQ overall disease severity, Percent Change from Baseline, Q1 [2]: −76.19% | SHAQ overall disease severity, Percent Change from Baseline, Q3 [2]: −44.12% | % change VAS Raynauds (Pooled Cilnidipine (n = 7)): −17% | % change in Alternative Disability Index (Pooled Cilnidipine (n = 7)): −13% | % change in Standard Disability Index (Pooled Cilnidipine (n = 7)): −25% | % change overall SSc Disease Severity (Pooled Cilnidipine (n = 7)): −60% (i.e., improvement) | % improvement in Breathing (median) (Pooled Cilnidipine (n = 7)): 41% (median) | % improvement in VAS Digital Ulcers (Pooled Cilnidipine (n = 7)): 19% | % change in Pain (SHAQ) (Pooled Cilnidipine (n = 7)): −31% | % from baseline, Intestinal Problems, mean (Pooled cilnidipine): −32.4% | % from baseline, Intestinal Problems, median (Pooled cilnidipine): −44.1% | % from baseline, VAS Breathing, mean (Pooled cilnidipine): −8.2% | % from baseline, VAS Breathing, median (Pooled cilnidipine): −41.3% | % from baseline, VAS Finger Ulcers, mean (Pooled cilnidipine): −17.1% | % from baseline, VAS Finger Ulcers, median (Pooled cilnidipine): −50.9% | % from baseline, VAS Overall Disease Severity, mean (Pooled cilnidipine): −59.8% | % from baseline, VAS Overall Disease Severity, median (Pooled cilnidipine): −55.9% | % from baseline, VAS Pain, mean (Pooled cilnidipine): −31.2% | % from baseline, VAS Pain, median (Pooled cilnidipine): −45% | % from baseline, VAS Raynaud's, mean (Pooled cilnidipine): −18.6% | % from baseline, VAS Raynaud's, median (Pooled cilnidipine): −38.7% | % from baseline, alternative disability, mean (Pooled cilnidipine): −12.9% | % from baseline, alternative disability, median (Pooled cilnidipine): −22.2% | % from baseline, standard disability, mean (Pooled cilnidipine): −25% | % from baseline, standard disability, median (Pooled cilnidipine): −16.7% | SHAQ Finger Ulcers, Change from Baseline, Max [3]: 0.00 | SHAQ Finger Ulcers, Change from Baseline, Mean (SD) [3]: −0.425 (0.5058) | SHAQ Finger Ulcers, Change from Baseline, Median [3]: −0.350 | SHAQ Finger Ulcers, Change from Baseline, Min [3]: −1.00 | SHAQ Finger Ulcers, Change from Baseline, Q1 [3]: −0.850 | SHAQ Finger Ulcers, Change from Baseline, Q3 [3]: 0.000 | SHAQ Finger Ulcers, In Clinic Visit (Day 12), Max [3]: 1.10 | SHAQ Finger Ulcers, In Clinic Visit (Day 12), Mean (SD) [3]: 0.275 (0.5500) | SHAQ Finger Ulcers, In Clinic Visit (Day 12), Median [3]: 0.000 | SHAQ Finger Ulcers, In Clinic Visit (Day 12), Min [3]: 0.00 | SHAQ Finger Ulcers, In Clinic Visit (Day 12), Q1 [3]: 0.000 | SHAQ Finger Ulcers, In Clinic Visit (Day 12), Q3 [3]: 0.550 | SHAQ Finger Ulcers, Percent Change from Baseline, Max [3]: −38.9% | SHAQ Finger Ulcers, Percent Change from Baseline, Mean (SD) [3]: −69.44 (43.212) % | SHAQ Finger Ulcers, Percent Change from Baseline, Median [3]: −69.44% | SHAQ Finger Ulcers, Percent Change from Baseline, Min [3]: −100.0% | SHAQ Finger Ulcers, Percent Change from Baseline, Q1 [3]: −100.00% | SHAQ Finger Ulcers, Percent Change from Baseline, Q3 [3]: −38.89% | SHAQ Overall Change in Severity, Change from Baseline, Max [3]: 0.20 | SHAQ Overall Change in Severity, Change from Baseline, Mean (SD) [3]: −0.900 (0.9695) | SHAQ Overall Change in Severity, Change from Baseline, Median [3]: −0.950 | SHAQ Overall Change in Severity, Change from Baseline, Min [3]: −1.90 | SHAQ Overall Change in Severity, Change from Baseline, Q1 [3]: −1.700 | SHAQ Overall Change in Severity, Change from Baseline, Q3 [3]: −0.100 | SHAQ Overall Change in Severity, In Clinic Visit (Day 12), Max [3]: 5.20 | SHAQ Overall Change in Severity, In Clinic Visit (Day 12), Mean (SD) [3]: 1.825 (2.4061) | SHAQ Overall Change in Severity, In Clinic Visit (Day 12), Median [3]: 1.050 | SHAQ Overall Change in Severity, In Clinic Visit (Day 12), Min [3]: 0.00 | SHAQ Overall Change in Severity, In Clinic Visit (Day 12), Q1 [3]: 0.100 | SHAQ Overall Change in Severity, In Clinic Visit (Day 12), Q3 [3]: 3.550
